The text below walks through data of article PMC7154662, “Structural Insight into IAPP‐Derived Amyloid Inhibitors and Their Mechanism of Action” (Angewandte Chemie (International Ed. in English), 2020).

Entries after “also recorded” stand apart in the source; their conditions may differ.

One data set deals with Aβ. As to conditions: cited from earlier work. From the text:
(§1) Single‐site binding events are the classical paradigm for a drug–enzyme complex. Because of the low affinity and the lack of deep binding pockets, this class of inhibitors is not very effective for amyloids (Figure 7, top). Nevertheless, it has been shown that multi‐ligand interactions of tramisprosate with monomeric Aβ42 can prevent amyloid oligo ...

For the next data set, the system named is Aβ42. As to conditions: multi-ligand interactions with monomeric Aβ42; cited from earlier work.
Description: as §1

Data set [1] in a line: Morphology by TEM, DIC and fluorescence microscopy. Type of data set: physicochemical. The following applies: DIC experiments; 10 mM sodium phosphate buffer, pH 7.4 (1% v/v HFIP). On the procedure: Figure 1 R3‐GI self‐assembly. […] On the right, the binding curve is shown. The estimated app. […] Data are means (±SEM) from three binding curves. […] Scale bar: 10 μm.
(§2) Peptide synthesis and sample preparation for NMR
(§3) The other peptide samples were
(§4) Sample preparation for DLS, TEM and DIC
(§5) (containing 1% v/v HFIP) without filtration. The Fluor-647-Aβ40 was ordered from AnaSpec, […]
(§6) for 20 min before capturing images. […]
(§7) microscope, as described elsewhere. An oil immersion objective (Apo-TIRF 100x Oil/NA 1.49, Nikon) was used for all measurements.
(§8) Picoquant) was used for excitation. Fluorescence emission was detected using an avalanche […]
(§9) measurements were carried out at 22 °C.
(§10) (measured before the back aperture of the objective). […]
(§11) temperature within 2-5 min following solution preparation. The determined app. Kd is means (±SD) from three binding curves.
Cross-linking studies were performed as previously described. […]
(§12) Effects of peptides on amyloidogenesis of Aβ40 were determined using a previously established ThT binding assay as described. […] ThT binding was determined immediately by measuring fluorescence emission at 486 nm following excitation at 450 nm using a 2030 Multilabel Reader VictorX3 (PerkinElmer Life Sciences). […]
(§13) PA 19440, USA; Formvar/Carbon 300 mesh copper coated). Samples were measured immediately employing an EM 10 CR (Zeiss, Germany). […]

For data set [2], the system named is Aβ40. Kind of data set: Solubility of 15N-labeled Aβ40 in presence of ISM (NMR titration). It is filed as binding. The following applies: for Aβ40 signal at tenfold excess of ISM, in words: molar ratio Aβ/ISM 1:10; for Effect on Aβ40 solubility upon titration, in words: titration with / incubation of monomeric Aβ40. On the procedure:
(§14) Figure 5 ISM–substrate interactions. A) ^15N‐filtered 1D‐^1H spectra of a 20 μM sample of ^15N‐labeled Aβ40 in the absence (black) and presence of the ISM inhibitor K3‐L3‐K3‐GI (top), and the non‐inhibitor G3‐GI (bottom). […] At this molar excess, the intensities of Aβ40 are reduced only to ca. 28 % when G3‐GI is titrated to Aβ40. […] At a molar ratio of 1:10 for Aβ/inhibitor, the spectrum is dominated by the resonances of the inhibitor. […] B) 2D ^1H‐^15N HSQCs of Aβ40 incubated with K3‐L3‐K3‐GI (red) at a molar ratio of 1:1. The Aβ40 reference spectrum is represented in black. […] C) Comparison of the DIC and fluorescence microscopy images of R3‐GI/Aβ40, K3‐L3‐K3‐GI/Aβ40, and G3‐GI/Aβ40. […] Scale: 10 μm.

The nature of data set [3]: Solution-state NMR (NOESY, chemical shifts) structural characterization. Type of data set: physicochemical. On the procedure: as §2, §3, §4, §5, §6, §7, §8, §9, §10
quantify the signal-to-noise ratio. For the R3-GI peptide, the signal to noise ratio of the isolated Thr-CH3 peak amounts to […]. For the reference peptide, the signal to noise of the single Thr-CH3 peak corresponds to 216.82. The ratio of concentrations amounts to a factor of 20.83. Otherwise, 1D-1H spectra were recorded under identical conditions. […]
images in which we determined the partitioning coefficient of the R3-GI solution (Fig. S3). […]
correlation time which in turn would result in higher NOESY cross peak intensities. A) H- H NOESY spectrum recorded for a 500 μM solution of R3-GI, using a salt concentration of 2.5 mM (black) and 50 mM NaCl (red), respectively. […]
recorded for a 500 μM solution of R3-GI, setting the pH to 5.98 (blue), 6.87 (green), 7.06 (red) and 7.23 (black). […]

The test system of a further data set is Aβ40/42. As to conditions: ref 1b; cited from earlier work. The source says:
The design of the ISMs was based on the finding that amyloids are generally composed of a β‐sheet‐turn‐β‐sheet structural motif and that IAPP uses the same two binding regions for both its amyloid self‐ and its cross‐amyloid hetero‐assem ... || Our studies focused on the two ISMs R3‐GI and K3‐L3‐K3‐GI for the following reasons (Figure 1 A and Table S1 in the Supporting Information): 1) R3‐GI was used in solution‐state NMR studies as the intrinsically low solubility of all ISMs with hydrophobic linkers makes them unsuitable for solution‐state NMR spectroscopy. […] Multivalent interactions between an inhibitor molecule and an amyloid fibril have been exploited by Wall and co‐workers,27 who designed an α‐helical peptide with a lysine basic side chain to interact with negatively charged residues exposed on the surface of amyloid structures. These inhibitors are used as imaging reagents and stabilize a fibrillar fold. In contrast, ISMs prevent amyloid form ...

The test system of data set [4] is Aβ40. Nature of the data set: Co-localization of Fluos-labeled ISMs with Fluor-647-Aβ40 (DIC and fluorescence microscopy). Type of data set: binding. As to conditions: incubated at room temperature for 20 min. On the procedure: as §14, §2, §3, §4
(containing 1% v/v HFIP) without filtration. The Fluor-647-Aβ40 was ordered from AnaSpec,
for 20 min before capturing images.
microscope, as described elsewhere. An oil immersion objective (Apo-TIRF 100x Oil/NA
1.49, Nikon) was used for all measurements.
Picoquant) was used for excitation. Fluorescence emission was detected using an avalanche
as §9
(measured before the back aperture of the objective).

A short description of data set [5]: Saturation transfer difference (STD) NMR. As to conditions: R3-GI 1.25 mM, control peptide 60 μM, 10 mM sodium phosphate buffer, pH 7.4 (1% v/v HFIP, 10% v/v D2O). Type of data set: physicochemical.
For data set [6], the system named is Aβ40. Kind of data set: Effects of ISM on Aβ40 amyloid self-assembly (ThT binding assay). Type of data set: biochemical. The following applies: Aβ40/ISM 1/1, 50 mM sodium phosphate buffer, pH 7.4, 100 mM NaCl, 1% HFIP, room temperature, 3 assays. On the procedure: as §11
Cross-linking studies were performed as previously described. Briefly, R3-GI was dissolved at 500 μM in aqueous 10 mM sodium phosphate buffer, pH 7.4, and incubated for the indicated time points at room temperature, cross-linked with aqueous glutaraldehyde (25%) (Sigma-Aldrich), precipitated with aqueous trichloroacetic acid (TCA) (10%) and pellets were dissolved in NuPAGE sample buffer and subjected to NuPAGE electrophoresis in 4-12% Bis-Tris gels with MES running buffer. Equal amounts of peptide were loaded in all lanes. Coomassie blue staining was performed following standard protocols.
Dynamic light scattering experiments […]
as §12
(A) Amyloid self-assembly of Aβ40 alone and its mixtures (1:1) with K3-L3-K3-GI or L3-GI (control) determined using the ThT binding assay (means (±SEM), 3 assays). […]
7 days aged solutions from (A) were added to PC12 cells; cell damage was assessed by the MTT reduction assay (means (±SEM), 3 assays (n=3 each)). […]

The test system of data set [7] is Aβ40. Nature of the data set: TEM of ISM-induced Aβ40 aggregates. It is filed as biochemical. The following applies: equimolar amount of K3-L3-K3-GI. On the procedure: Figure 6 Structural characterization of K3‐L3‐K3‐GI‐induced Aβ40 aggregates. A, B) TEM images of Aβ40 in the absence (A) and presence (B) of an equimolar amount of K3‐L3‐K3‐GI. Scale bar: 200 nm. C) 2D ^13C,^15N MAS solid‐state NMR correlation spectra obtained for K3‐L3‐K3‐GI‐induced Aβ40 aggregates (red). To prepare the sample, a 20 μM solution of monomeric Aβ40 was incubated with a 1.23‐fold molar excess of K3‐L3‐K3‐GI. For reference, the correlation spectrum obtained for Aβ40 fibrils is shown in black. To prepare the Aβ40 fibril sample, monomeric Aβ40 was grown using 5 % seeds, following the protocol described by Lopez and co‐workers.17 (D) Cα–Cβ chemical shift differences for K3‐L3‐K3‐GI‐induced Aβ40 aggregates (top). TALOS+^[19]‐predicted secondary structure propensity (bottom). […]
temperature within 2-5 min following solution preparation. The determined app. […]
as §12, §13

Data set [8] in a line: Solubility of ISMs (qualitative). Type of data set: physicochemical.
Setting [9] is: 20 μM 15N-labeled Aβ40, molar ratio 1:1.

Take `CSc1ccc(/C=C2/C(C)=C(CC(=O)O)c3cc(F)ccc32)cc1` [sulindac sulfide]: the “Effect on Aβ peptide aggregation” value with Aβ is reported as “accelerates Aβ peptide aggregation”.
Consider `NCCCS(=O)(=O)O` [tramisprosate], for which the “Effect on Aβ42 amyloid oligomer formation” value in the data set on Aβ42 is “can prevent amyloid oligomer formation”.
With “ATQRLANFLVH-GGG-NF(N-Me)GA(N-Me)ILS [G3-GI]”, in data set [1], the “Macroscopic particles in solution (DIC)” value is given as “macroscopic particles are observed”. In addition, in the data set with Aβ40 [2] (setting [9]), the “Aβ40 solubility at 1:1, in words” value is on record as “almost unaffected”. Besides, in the data set with Aβ40 [2] (20 μM 15N-labeled Aβ40, molar ratio Aβ/ISM 1:10), the “Aβ40 resonance intensity remaining at tenfold excess of ISM” value is “ca. 28%”. In the data set on Aβ40 [2], the “Aβ40 signal at tenfold excess of ISM, in words” value is on record as “high intensities were observed” and the “Effect on Aβ40 solubility upon titration, in words” value is reported as “no effects on Aβ40 solubility were observed”. Moreover, in data set [3], the “Long-range NOE contacts (loop formation)” value was “only weak long‐range NOEs if any”. For the same compound, the “Aβ amyloid self-assembly inhibition, in words” value in the data set on Aβ40/42 is given as “non‐inhibitor”. Moreover, the “Co-localization with Aβ40” value with Aβ40 [4] is “no co‐localization with Aβ40”.
With GVAEPEQDCAVTSGE, the “STD NMR signals” value in data set [5] is on record as “monomeric”; in [5] (listed as monomeric peptide used as a control), “no STD signals”.
Regarding “KKK-ATQRLANFLVH-LLL-NF(N-Me)GA(N-Me)ILS-KKK [K3-L3-K3-GI]”, the “Aβ40 remaining in solution” value in the data set on Aβ40 [2] (setting [9]) turned out to be 9%. Further, the “Aβ40 chemical shift changes upon ISM addition” value in the data set with Aβ40 [2] (2D 1H-15N HSQC, molar ratio 1:1) is on record as “not affected; also recorded: No Aβ40 chemical shift changes were observed”. Moreover, in the data set on Aβ40 [2], the “Aβ40 signal at tenfold excess of ISM, in words” value was “almost empty; also recorded: disappear quantitatively” and the “Effect on Aβ40 solubility upon titration, in words” value was “precipitated quickly out of solution”. The “Function of K3-L3-K3-GI as analogue of L3-GI (Figure S1)” value in the data set on Aβ40 [6] is “functional analogue”. Besides, in the data set with Aβ40 [7], the “Morphology of ISM-induced Aβ40 aggregates” value was “mainly amorphous aggregates”. In the data set with Aβ40 [4], the “Co-localization with Aβ40” value is reported as “co‐localize with Aβ40”. Besides, the “Solubility, in words” value in [8] is given as “reasonably soluble”.
